Laboratory results reported in patent US12358999B2, “Protein recognizing drug moiety of antibody-drug conjugate” (DAIICHI SANKYO COMPANY, LIMITED, priority 2018, dated 2025).
Counter-ions that a name gives are not always drawn.

T1: topoisomerase I (Homo sapiens, UniProt P11387)
T1 sequence (P11387 1-765): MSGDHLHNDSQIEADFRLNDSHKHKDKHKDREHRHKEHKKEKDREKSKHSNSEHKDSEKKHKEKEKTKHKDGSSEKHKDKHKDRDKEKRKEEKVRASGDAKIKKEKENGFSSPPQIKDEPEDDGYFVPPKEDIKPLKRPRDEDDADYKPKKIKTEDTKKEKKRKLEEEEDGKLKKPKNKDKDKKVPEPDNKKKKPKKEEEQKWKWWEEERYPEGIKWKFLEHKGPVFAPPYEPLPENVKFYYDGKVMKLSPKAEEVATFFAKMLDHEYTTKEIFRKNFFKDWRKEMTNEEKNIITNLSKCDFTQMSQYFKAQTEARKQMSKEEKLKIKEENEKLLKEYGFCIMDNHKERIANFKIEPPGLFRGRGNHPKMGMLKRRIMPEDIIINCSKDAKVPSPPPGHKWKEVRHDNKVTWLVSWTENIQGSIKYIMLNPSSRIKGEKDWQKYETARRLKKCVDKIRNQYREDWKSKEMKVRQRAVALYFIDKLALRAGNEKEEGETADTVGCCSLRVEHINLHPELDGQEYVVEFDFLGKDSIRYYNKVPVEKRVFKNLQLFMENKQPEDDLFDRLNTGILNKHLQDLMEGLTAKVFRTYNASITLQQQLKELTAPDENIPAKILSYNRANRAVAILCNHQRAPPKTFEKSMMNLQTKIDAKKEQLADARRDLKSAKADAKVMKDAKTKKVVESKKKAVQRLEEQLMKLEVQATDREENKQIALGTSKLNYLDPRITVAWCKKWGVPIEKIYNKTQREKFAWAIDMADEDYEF


Experiments:
[1] = test system: mouse antibody 1A3; test: Competitive inhibition with HER2-ADC (I), chemical structure recognized by mouse antibody 1A3 (Gyrolab); type: binding; conditions: compound 1 and 100 μg/mL dilution solutions; response at HER2-ADC (I) 250 ng/mL
Source text: The chemical structure to be recognized by mouse antibody 1A3 was checked by competitive inhibition with HER2-ADC (I) using Gyrolab xP workstation (GYROS PROTEIN Technologies). As the compound for use in competitive inhibition, compound (1), compound (2), compound (7), compound (8), compound (9), compound (10), compound (11), Topotecan and Rubitecan were selected.
As the capture reagent, mouse antibody 1A3 labeled with biotin by a labeling kit (ChromaLink Biotin Protein LABELING Kit, Solulink) was used. The concentration thereof was controlled to be 700 nM with 0.1% PS20-containing PBS. The compounds for use in competitive inhibition, compound (1), compound (2), compound (7), compound (8), compound (9), compound (10), compound (11), Topotecan and Rubitecan were separately dissolved in DMSO. The solutions each was diluted with 10% or 20% DMSO in Rexxip HN (GYROS PROTEIN Technologies) to prepare 0, 1 and 100 μg/mL dilution solutions. To each of them, the 700 nM mouse antibody 1A3 solution was added in an equal amount. The mixture was stirred and allowed to react at room temperature in a dark place for one hour or more. The concentration of HER2-ADC (I) was controlled with Rexxip HN to be 0, 0.244, 0.977, 3.91, 15.6, 62.5, 250 and 1000 ng/mL. As the detection reagent, Mouse Anti-(Anti-HER2 Ab) idiotype Ab (13C1) (IBL) was labeled by DyLight650 (registered trademark) labeling kit and put in use. The concentration thereof was controlled with Rexxip F (GYROS PROTEIN Technologies) to be 10 nM. The above solution was set at Gyrolab xP workstation and measurement was carried out by use of Gyrolab Bioaffy 200 at 200-3W-002-A (PMT5). The regression analysis was carried out by use of Gyrolab Evaluator 3.4.0.24 in 4-parametric logistic model (weight: Response). The calibration curve of HER2-ADC (I) was prepared per concentration of the competitive inhibition compound. The inhibition rate (%) was calculated by comparing the response at an HER2-ADC (I) concentration of 250 ng/mL to that of the case where no compound was added (concentration 0 ng/mL).

[2] = test system: sera of BALB/c mice and BDF1 mice after immunization; test: Inhibition ELISA of immunized mouse sera on immobilized antigen protein (2); type: binding; conditions: sera diluted 50000 fold; compound 12.5-100 μg/mL
Method: To the sera of BALB/c mice (4 individuals) and BDF1 mice (4 individuals) after immunization through four administrations, compound (6), compound (7) and compound (1) as positive controls and compound (8) as a negative control were added and the unabsorption rate to antigen protein (2) was calculated. The mouse sera diluted to 50000 fold and compound (6), compound (8), compound (7) and compound (1), which were prepared to have a concentration of 12.5, 25, 50 and 100 μg/mL, were mixed and allowed to react at 4° C. overnight, and then, added to ELISA immunoplates having the antigen protein (2) immobilized thereon and allowed to react at 37° C. for 30 minutes. After washing, anti-mouse IgG-HRP was allowed to react at 37° C. for 30 minutes. After washing, an OPD solution was added. After termination of color development, absorbance at 490 nm was measured. The unabsorption rate was calculated in accordance with the following expression: Unabsorption rate(%)=(a/b)×100
a: Absorbance of positive control or negative control at an addition concentration of 12.5 μg/mL
b: Absorbance of a sample not containing positive control or a sample not containing a negative control

[3] = biological target: T1, topoisomerase I; conditions: cited from earlier work
[4] = test system: TROP2-ADC (I); test: Immunostaining with rabbit chimeric antibody 1A3, FaDu subcutaneous tumor after TROP2-ADC (I); type: binding, nude mouse
Method: To an immunodeficient mouse (nude mouse), human head and neck cancer cell line FaDu was subcutaneously transplanted. After TROP2-ADC (I) was administered, the tumor tissue was taken to prepare paraffin-embedded specimens. Then, stainability of rabbit chimeric antibody 1A3 was examined. The tumor tissue was taken from a nude mouse to which an anti-TROP2 antibody (an antibody comprising a heavy chain consisting of amino acid sequence of amino acid residues 20 to 470 of SEQ ID NO: 25 and a light chain consisting of amino acid sequence of amino acid residues 21 to 234 of SEQ ID NO: 26, hereinafter referred to as “Anti-TROP2 Ab”) and used as a negative control. Deparaffinization and antigen activation were carried out using Autostainer Link pretreatment system (PT Link, manufactured by DAKO) and an antigen retrieval solution (Target Retrieval Solution Low pH, manufactured by DAKO) at 97° C. for 40 minutes. The following staining operation was carried out using an automatic staining device (Dako Autostainer Link 48: manufactured by DAKO) at room temperature. After washing once with EnVision FLEX WASH BUFFER (manufactured by DAKO), REAL Peroxidase-Blocking Solution (manufactured by DAKO) was added; incubation was carried out for 5 minutes; and washing was carried out once with EnVision FLEX WASH BUFFER. […]

[5] = test system: GPR20-ADC (I); test: Immunostaining with rabbit chimeric antibody 1A3, GIST-T1/GPR20 subcutaneous tumor after GPR20-ADC (I); type: binding, nude mouse

Molecule	competitive inhibition of recognition of mouse antibody 1A3 to HER2-ADC (I) (inhibition rate, FIG. 41) [1]	inhibition effect on binding of mouse sera to antigen protein (2) (unabsorption rate) [2]	other results
CC[C@@]1(O)C(=O)OCc2c1cc1n(c2=O)Cc2cc3c([N+](=O)[O-])cccc3nc2-1 [Rubitecan]	did not exhibit competitive inhibition		
CC[C@@]1(O)C(=O)OCc2c1cc1n(c2=O)Cc2cc3c(CN(C)C)c(O)ccc3nc2-1 [Topotecan]	did not exhibit competitive inhibition		
CC[C@@]1(O)C(=O)OCc2c1cc1n(c2=O)Cc2c-1nc1cc(F)c(C)c3c1c2[C@@H](N)CC3 [compound (1), (1S,9S)-1-amino-9-ethyl-5-fluoro-1,2,3,9,12,15-hexahydro-9-hydroxy-4-methyl-10H,13H-benzo[de]pyrano[3′,4′:6,7]indolizino[1,2-b]quinoline-10,13-dione, reference compound]	strong competitive inhibition	high inhibition effect	topoisomerase I inhibitory activity [3]: topoisomerase I inhibitory activity
CC[C@@]1(O)C(=O)OCc2c1cc1n(c2=O)Cc2c-1nc1cc(F)c(C)c3c1c2[C@@H](NC(=O)CCCNC(=O)CCCCCCC(=O)ON1C(=O)CCC1=O)CC3 [compound (6), 8-[(2,5-dioxopyrrolidin-1-yl)oxy]-N-(4-{[(1S,9S)-9-ethyl-5-fluoro-9-hydroxy-4-methyl-10,13-dioxo-2,3,9,10,13,15-hexahydro-1H,12H-benzo[de]pyrano[3′,4′:6,7]indolizino[1,2-b]quinolin-1-yl]amino}-4-oxobutyl)-8-oxooctane Amide]		high inhibition effect	
CC[C@]1(O)c2cc3n(c(=O)c2COC1O)Cc1c-3nc2cc(F)c(C)c3c2c1[C@@H](NC(=O)CCCN)CC3 (stereo partly drawn) [compound (7), 4-amino-N-[(1S,9S)-9-ethyl-5-fluoro-9,10-dihydroxy-4-methyl-13-oxo-2,3,9,10,13,15-hexahydro-1H,12H-benzo[de]pyrano[3′,4′:6,7]indolizino[1,2-b]quinolin-1-yl] butanamide Trifluoroacetate]	strong competitive inhibition	in some individuals have a high inhibition effect	
NCCCC(=O)NC1CCCCC1 [compound (8), 4-amino-N-cyclohexyl-butanamide Hydrochloride]	did not exhibit competitive inhibition	in none of the plasmas, a high inhibition effect	
CC[C@@]1(O)C(=O)OCc2c1cc1n(c2=O)Cc2c-1nc1ccc(C)c3c1c2CCC3 [compound (9)]	strong competitive inhibition		
CC[C@@]1(O)C(=O)OCc2c1cc1n(c2=O)Cc2c-1nc1cccc3c1c2C(N)CC3 (some centres unmarked) [compound (10)]	did not exhibit competitive inhibition		
CC[C@@]1(O)C(=O)OCc2c1cc1n(c2=O)Cc2c-1nc1cc(F)c(CO)c3c1c2[C@@H](N)CC3 [compound (11)]	did not exhibit competitive inhibition		
rabbit chimeric antibody 1A3: rabbit chimeric antibody derived from mouse antibody 1A3; heavy chain SEQ ID NO: 19, light chain SEQ ID NO: 20 (antibody) heavy: MKHLWFFLLLVAAPRWVLSEVKLVESGGGLVQPGGSRKLSCAASGFTFSDYGMVWIRQAPGRGLEWVAYISSGSSAIYYADTVKGRFTISRDNPKNTLFLQMNSLRSEDSAMYFCARPPRYDVYSAWFAYWGQGTLVTVSAGQPKAPSVFPLAPCCGDTPSSTVTLGCLVKGYLPEPVTVTWNSGTLTNGVRTFPSVRQSSGLYSLSSVVSVTSSSQPVTCNVAHPATNTKVDKTVAPSTCSKPTCPPPELLGGPSVFIFPPKPKDTLMISRTPEVTCVVVDVSQDDPEVQFTWYINNEQVRTARPPLREQQFNSTIRVVSTLPITHQDWLRGKEFKCKVHNKALPAPIEKTISKARGQPLEPKVYTMGPPREELSSRSVSLTCMINGFYPSDISVEWEKNGKAEDNYKTTPAVLDSDGSYFLYNKLSVPTSEWQRGDVFTCSVMHEALHNHYTQKSISRSPGK light: MVLQTQVFISLLLWISGAYGDIVMTQSHKFMSTSVGDRVSITCKASQDVGSAVVWYQQKPGHSPDLLIYWASTRHTGVPDRFTGSGSGTDFTLTIGNVQSEDLADYFCQQYSSYPVTFGGGTKLEIKRDPVAPSVLLFPPSKEELTTGTATIVCVANKFYPSDITVTWKVDGTTQQSGIENSKTPQSPEDNTYSLSSTLSLTSAQYNSHSVYTCEVVQGSASPIVQSFNRGDC			stainability to subcutaneous tumor tissue ([4]; animal administered with TROP2-ADC (I), antibody 0.1 μg/mL): satisfactory stainability; stainability to subcutaneous tumor tissue ([4]; animal administered with anti-TROP2 Ab (negative control tissue)): did not show stainability; stainability to subcutaneous tumor tissue ([5]; animal administered with GPR20-ADC (I)): satisfactory stainability; stainability to subcutaneous tumor tissue ([5]; animal not administered with GPR20-ADC (I)): did not show stainability
